This is an account of results in patent US20140179726A1, “GUT MICROFLORA AS BIOMARKERS FOR THE PROGNOSIS OF CIRRHOSIS AND BRAIN DYSFUNCTION” (priority 2011, published 2014).

The test system of test [1] is cirrhotic patients with HE. Put plainly: Comparison within the HE group: cognitive battery (PHES, block design, ICT) (Example 1). It counts as in vivo, human. As to conditions: HE patients on therapy, mean ± SD. Here is the method:
All subjects underwent a mini-mental status exam and only those scoring above 25 were included in the full study (11). Participants then underwent a 24-hour dietary recall. Subsequently a recommended cognitive battery consisting of the following tests was administered to the cirrhotic patients; (a) Psychometric hepatic encephalopathy score (PHES), (b) block design test (BDT: subjects are required to replicate standardized designs with given blocks in a timed manner. The score is based on the designs correctly copied) and (c) Inhibitory control test. [This is a 15 minute computerized test. Subjects are instructed to respond to alternating presentations of X and Y on the screen (targets) while inhibiting response when X and Y are not alternating (lures)] (3, 41). The PHES consists of 5 tests: number connection test-A/B (NCT-A/B: subjects are asked to “join the dots” between numbers or numbers and alphabets in a timed fashion and the number of seconds required is the outcome), digit symbol (DST: subjects are required to copy corresponding figures from a given list within 2 minutes and the number correctly copied is the result), line drawing [LDTt (time) and LDTe (errors): subjects are required to trace a line between two parallel lines and balance between speed and accuracy. Time required and the number of times the subject's line strays beyond the marked lines (errors) are recorded] and serial dotting (SDT, subjects are asked to dot the center of a group of blank circles and the time required is the outcome)]. The PHES is a validated battery for cognitive dysfunction in cirrhosis and tests for psychomotor speed, visuo-motor coordination, attention and set-shifting(32). The BDT tests for visuo-motor coordination. The ICT is a validated computerized test of attention, psychomotor speed, response inhibition and working memory. A high score on BDT, DST and ICT targets and a low score on the rest of the tests indicates good cognitive performance. Cirrhotic patients also underwent serum collection for inflammatory cytokines testing for innate immunity [IL-1b, IL-6, TNF-α (tumor necrosis factor-alpha)], Th1 response ([IFN-γ (interferon-gamma) and IL-2], Th2 response (IL-4, IL-10, IL-13], Th17 response (IL-17 and IL-23), and endotoxin. These were analyzed in duplicate by multiplex bead-based sandwich ELISA and LAL assay for endotoxin using published techniques by AssayGate Inc, Ijamsville, Md. (4, 17, 45).
The cirrhosis group was divided into those with and without HE and were compared. Data from the significant variables between HE and non-HE groups were combined in a MANOVA model. Within HE patients, comparison was made between those on lactulose alone to those with lactulose and rifaximin. Microbiome abundance comparisons between groups were made at a family level using non-parametric tests. A comparison was performed between patients on and withdrawn off of lactulose therapy using the Wilcoxon matched-pair signed rank tests. All values are presented as mean±standard deviation unless mentioned otherwise.

The next test deals with mucosal microbiome. The experiment in a line: Colonic mucosal microbiome by MTPS, compared using Metastats (Example 2). It is filed as in vivo, human. As to conditions: colonic mucosa, HE patients. Here is the method:
Interrogation of the Microbiome: Stool was collected and DNA extracted for microbiome analysis using published techniques (30). A subset underwent an un-sedated, unprepared flexible sigmoidoscopy during which a pinch biopsy of the recto-sigmoid mucosa was obtained, which was snap-frozen and stored at −80° C. till the analysis. We first use Length Heterogeneity PCR (LH-PCR) fingerprinting of the 16S rRNA to rapidly survey samples and standardize the community amplification. We then interrogated the microbial taxa associated with the gut fecal microbiome using Multitag Pyrosequencing (MTPS) (16). This technique allows for rapid sequencing of multiple samples at one time yielding thousands of sequence reads per sample.
Microbiome Community Fingerprinting: LH-PCR was done to standardize the community analysis as previously published. Briefly, total genomic DNA was extracted from tissue using Bio101 kit from MP Biomedicals Inc., Montreal, Quebec as per the manufacturer's instructions. About 10 ng of extracted DNA was amplified by PCR using a fluorescently labeled forward primer 27F (5′-(6FAM) AGAGTTTGATCCTGGCTCA G-3′, SEQ ID NO: 1) and unlabeled reverse primer 355R′ (5′-GCTGCCTCCCGTAGGAGT-3′, SEQ ID NO: 2). Both primers are universal primers for Bacteria (23). The LH-PCR products were diluted according to their intensity on agarose gel electrophoresis and mixed with ILS-600 size standards (Promega) and HiDi Formamide (Applied Biosystems, Foster City, Calif.). The diluted samples were then separated on a ABI 3130x1 fluorescent capillary sequencer (Applied Biosystems, Foster City, Calif.) and processed using the Genemapper™ software package (Applied Biosystems, Foster City, Calif.). Normalized peak areas were calculated using a custom PERL script and operational taxonomic units (OTUs) constituting less than 1% of the total community from each sample were eliminated from the analysis to remove the variable low abundance components within the communities.
MTPS: We employed the MTPS process to characterize the microbiome from the fecal and biopsy samples. Specifically, we have generated a set of 96 emulsion PCR fusion primers that contain the 454 emulsion PCR linkers on the 27F and 355R primers and a different 8 base “barcode” between the A adapter and 27F primer. Thus, each fecal sample was amplified with unique bar-coded forward 16S rRNA primers and then up to 96 samples were pooled and subjected to emulsion PCR and pyrosequenced using a GS-FLX pyrosequencer (Roche). Data from each pooled sample were “deconvoluted” by sorting the sequences into bins based on the barcodes using custom PERL scripts. Thus, we were able to normalize each sample by the total number of reads from each barcode. We have noted that ligating tagged primers to PCR amplicons distorts the abundances of the communities and thus it is critical to incorporate the tags during the original amplification step.
Microbiome Community Analysis: We identified the taxa present in each sample using the Bayesian analysis tool in Version 10 of the Ribosomal Database Project (RDP10). […] We chose this cutoff because of our a priori assumption that genera present in <1% of the community vary between individuals and have minimal contribution to the functionality of that community and 2,000 reads per sample will only reliably identify community components that are greater than 1% in abundance (16). […]

In test [1] (high = good cognition), `OC[C@H]1O[C@@H](O[C@@H]2[C@@H](CO)OC(O)(CO)[C@H]2O)[C@H](O)[C@@H](O)[C@H]1O` (mixture of isomers) [lactulose] had an ICT targets of 90.6 ± 8.64%, a block design of 24.9 ± 24.8 score and a digit symbol of 36.5 ± 14.0 score. Further, in test [1] (high = poor cognition), the ICT lures came to 17.4 ± 10.8 number, the Line drawing errors was determined as 28.0 ± 18.6 score, the Line drawing time was determined as 106.9 ± 54.5 s and the “number connection-A” value was 55.2 ± 34.1 s. Moreover, in test [1] (high = poor cognition), the “number connection-B” value was 189 ± 127 s and the serial dotting stood at 88.7 ± 29.2 s. This compound also showed a Lachnospiraceae_Roseburia with mucosal microbiome (p 0.005) of 1.9 % abundance. Moreover, the “Incertae Sedis XIV_Blautia” value in the test with mucosal microbiome (p 0.008) came to 4.2 % abundance. In the test on mucosal microbiome (p 0.03), this compound returned a Propionibacteriaceae_Propionibacterium of 1.1 % abundance, a Rikenellaceae_Alistipes of 1.8 % abundance and a Veillonellaceae_Other of 1.1 % abundance.
